The series is described as follows: photoluminescence quantum yield (fraction); solvent given as SMILES.

With `O=P1(c2ccccc2)c2ccc(N3c4ccccc4Oc4ccccc43)cc2-c2cc(N3c4ccccc4Oc4ccccc43)ccc21`, the photoluminescence quantum yield runs as follows: (in Cc1ccccc1) 0.83; (in c1ccc2c(c1)c1ccccc1n2-c1ccc(-c2ccc(-n3c4ccccc4c4ccccc43)cc2)cc1) 0.8.
For `C(#Cc1cccc(C#Cc2ccc(-n3c4ccccc4c4ccccc43)cc2)c1)c1ccc(-n2c3ccccc3c3ccccc32)cc1`, for the setting “in ClCCl”, the photoluminescence quantum yield amounted to 0.8.
With `CC1=[N+]2C(=C(c3ccccc3)c3c4c(c(C)n3[B-]2(F)F)C2CCC4CC2)C2=C1C1CCC2CC1`, the photoluminescence quantum yield (in CC#N) was 0.81.
Where the note is “in ClCCl”, `CCOC(=O)C1=C(C(=O)OCC)C2(c3ccccc3-c3c(Br)cc(Br)cc32)C2(/C=C/c3ccc(Cl)cc3)c3cc(OC)c(OC)cc3CCN12` (stereo not drawn) yielded a photoluminescence quantum yield of 0.00075.
As to `COc1ccccc1-c1c2ccc(=[N+]3CCCCC3)cc-2oc2cc(N3CCCCC3)ccc12`, the photoluminescence quantum yield reads like this: (in CCO) 0.36; (in ClCCl) 0.92.
For the compound `CCOC(=O)CN(CC(=O)OCC)c1ccc(-c2cc(-c3ccccn3)nc(-c3ccccn3)c2)cc1`, the photoluminescence quantum yield runs as follows: (in CC#N) 0.37; (in CCOC(C)=O) 0.48; (in CN(C)C=O) 0.31; (in CS(C)=O) 0.34; (in c1ccccc1) 0.5.
`CCn1c(=O)nc2n(C)c3cc(C)ccc3nc-2c1=O` displayed a photoluminescence quantum yield (in C1COCCO1) of 0.14, a photoluminescence quantum yield (in CC#N) of 0.14, a photoluminescence quantum yield (in CO) of 0.11 and a photoluminescence quantum yield (in ClCCCl) of 0.12.
Regarding `CC1(C)C(/C=C/C=C/C=C/C=C2/N(c3ccc(S(=O)(=O)[O-])cc3)c3ccc(S(=O)(=O)[O-])cc3C2(C)C)=[N+](c2ccc(S(=O)(=O)[O-])cc2)c2ccc(S(=O)(=O)[O-])cc21`, the photoluminescence quantum yield by setting is: (in CO) 0.47; (in O) 0.21.
On to `COc1ccc(C2=N/C(=C\c3ccccc3)C(=O)N2)cc1OC`, for which the photoluminescence quantum yield (in C1COCCO1) came to 0.034.
Take `N#Cc1ccc(C#Cc2ccc(C#Cc3ccccc3C#N)cc2C#N)cc1`: the photoluminescence quantum yield (in ClC(Cl)Cl) worked out at 0.783.
In turn, `COC(=O)c1ccc(/C=C2\N=C(c3ccccc3)OC2=O)cc1` came in with a photoluminescence quantum yield (in C1COCCO1) of 0.
For `CCN(CC)c1ccc(/C=N/c2ccccc2/N=C/c2ccc(N(CC)CC)cc2O)c(O)c1`, for the setting “in CC#N”, the photoluminescence quantum yield came to 0.22.
`N#Cc1c(N2CCCCC2)cc(-c2ccc(-c3ccccc3)s2)c2c1CCc1ccccc1-2` displayed a photoluminescence quantum yield (in C1CCOC1) of 0.23.
Turning to `COCCOCCOCCOCC(COCCOCCOCCOC)Oc1cc(/C=C/c2ccc(/C=C(\C#N)c3ccc(C(F)(F)F)cc3)cc2)c(OC(COCCOCCOCCOC)COCCOCCOCCOC)cc1/C=C/c1ccc(/C=C(\C#N)c2ccc(C(F)(F)F)cc2)cc1`, the photoluminescence quantum yield (in ClCCl) came out at 0.55.
Take `CN(C)CCCN1c2ccccc2CCc2ccccc21`: the photoluminescence quantum yield by setting is: (in CC#N) 0.012; (in CO) 0.01; (in O) 0.021.
`CN(C)c1c2ccccc2cc2ccccc12` returned a photoluminescence quantum yield (in C1CCCCC1) of 0.008; a photoluminescence quantum yield (in C1CCOC1) of 0.01; a photoluminescence quantum yield (in C1COCCO1) of 0.013; a photoluminescence quantum yield (in CC#N) of 0.007; a photoluminescence quantum yield (in CCO) of 0.007; a photoluminescence quantum yield (in CN(C)C=O) of 0.016. Also, the photoluminescence quantum yield is, setting by setting: (in CO) 0.008; (in COCCOC) 0.007; (in CS(C)=O) 0.018; (in O) 0.011; (in OCC(O)CO) 0.068; (in OCCO) 0.022.
The compound `Cc1csc2[n+]1[B-](F)(F)n1c(c3cccc4cccc1c43)=N2` registered a photoluminescence quantum yield (in C1CCOC1) of 0.83; a photoluminescence quantum yield (in CC#N) of 0.78; a photoluminescence quantum yield (in CCCCCC) of 0.99; a photoluminescence quantum yield (in Cc1ccccc1) of 0.99; a photoluminescence quantum yield (in ClCCl) of 0.95.
In the case of `F[Si-](F)(c1c2ccccc2cc2ccccc12)(c1c2ccccc2cc2ccccc12)c1c2ccccc2cc2ccccc12`, the photoluminescence quantum yield (in C1CCOC1) was 0.64.
`CCCCCCC(CCCCCC)N1C(=O)c2cccc3c(-c4ccc(OC)cc4)ccc(c23)C1=O` yielded a photoluminescence quantum yield (in CCCCCC) of 0.65; a photoluminescence quantum yield (in CCCCCCCCCCCCCC) of 0.79; a photoluminescence quantum yield (in CCCCCCCCCCCO) of 0.83; a photoluminescence quantum yield (in CCCCO) of 0.83; a photoluminescence quantum yield (in CN(C)C=O) of 0.82; a photoluminescence quantum yield (in Cc1ccccc1) of 0.75. The photoluminescence quantum yield (in ClC(Cl)Cl) is 0.83.
`CC(C)(C)c1ccc2c(c1)c1cc(C(C)(C)C)ccc1n2-c1cc(-n2c3ccc(C(C)(C)C)cc3c3cc(C(C)(C)C)ccc32)c(-n2c3ccc(C(C)(C)C)cc3c3cc(C(C)(C)C)ccc32)c(C#N)c1-n1c2ccc(C(C)(C)C)cc2c2cc(C(C)(C)C)ccc21` yielded a photoluminescence quantum yield (in Cc1ccccc1) of 0.68.
For the compound `CC1=C(c2ccccc2)C2=Cc3c(-c4ccccc4)c(C)c(C)n3[B-](F)(F)[N+]2=C1C`, the photoluminescence quantum yield (in CC#N) came out at 0.93.
Regarding `COc1ccc(-c2[nH]c(=O)n3c2-c2ccccc2C3=O)c(OC)c1`, the photoluminescence quantum yield was determined as 0.48 (in CC#N), 0.39 (in CO) and 0.57 (in ClCCl).
`CCCCCCCCCCOc1cc(OCCCCCCCCCC)cc(C2=C3C(C)=CC(/C=C/c4ccc(OC)cc4)=[N+]3[B-](F)(F)n3c(/C=C/c4ccc(OC)cc4)cc(C=Cc4ccc(OC)cc4)c32)c1` came in with a photoluminescence quantum yield (in ClC(Cl)Cl) of 0.35.
Consider `CCn1c2ccc(/C=C/c3ccc4c(c3)c3cc(-c5nc6ccccc6s5)ccc3n4CC)cc2c2cc(-c3nc4ccccc4s3)ccc21`, for which the photoluminescence quantum yield was determined as 0.65 (in C1CCOC1); 0.26 (in CC#N); 0.58 (in CCOC(C)=O); 0.32 (in CN(C)C=O); 0.5 (in ClCCl).
In the case of `CCCn1c(=O)c(/C=C/c2nc3ccc(C)cc3n(CCC)c2=O)nc2ccc(C)cc21`, the photoluminescence quantum yield (in C1COCCO1) is 0.2, the photoluminescence quantum yield (in CC#N) worked out at 0.15 and the photoluminescence quantum yield (in ClCCl) is 0.21.
Take `O=C(O)c1cc2c(cc3ccc4cccc5ccc2c3c45)[nH]1`: the photoluminescence quantum yield (in CCOC(C)=O) worked out at 0.82.
On to `CN1C(=O)c2cccc3c(-n4c5ccccc5c5ccccc54)ccc(c23)C1=O`, for which the photoluminescence quantum yield is, setting by setting: (in C1CCOC1) 0.031; (in CCCCCC) 0.895; (in ClC(Cl)Cl) 0.204; (in ClCCl) 0.029.
Compound `CC(C)(C)c1ccc(-c2ccc3c(-c4ccc(C(C)(C)C)c5ccccc45)cc4c5cc(-c6ccc(C(C)(C)C)c7ccccc67)ccc5c(-c5ccc(C(C)(C)C)c6ccccc56)cc4c3c2)c2ccccc12` gave a photoluminescence quantum yield (in ClCCl) of 0.72.
`CN(C)c1ccc(-c2cc(-c3cccs3)nc(-c3ccccc3)n2)cc1` had a photoluminescence quantum yield (in ClC(Cl)Cl) of 0.46.
`c1ccc(N2c3ccccc3Sc3cc(-c4cccc5nc6ccccc6cc45)ccc32)cc1`: the photoluminescence quantum yield (in CC#N) came to 0.0076, the photoluminescence quantum yield (in CCCCCC) came out at 0.213, the photoluminescence quantum yield (in CCOCC) is 0.17 and the photoluminescence quantum yield (in ClCCl) came out at 0.0635.
In the case of `FC(F)(F)C(F)(F)C(F)(F)c1nc2c(-c3ccsc3)cc3c4cc(-c5ccsc5)c5nc(C(F)(F)C(F)(F)C(F)(F)F)nc6c(-c7ccsc7)cc(c7cc(-c8ccsc8)c(n1)c2c37)c4c56`, the photoluminescence quantum yield (in C1CCOC1) was 0.62.
In the case of `COc1ccc(-c2nc(N)nc(C#N)c2C#N)cc1OC`, the photoluminescence quantum yield reads like this: (in C1COCCO1) 0.0073; (in CC#N) 0.0893; (in CC(C)=O) 0.0272; (in CCO) 0.0105; (in CCOC(C)=O) 0.0185; (in CO) 0.0143.
For `CCCCCCCCCCCCOc1cc2c3c(ccc4c5c(N6CCOCC6)cc6c7c(ccc(c1c34)c75)C(=O)N(C1CCCCC1)C6=O)C(=O)N(C1CCCCC1)C2=O`, the photoluminescence quantum yield (in ClC(Cl)Cl) is 0.067.
Turning to `c1ccc(-c2cnc3nn4ccccc4c3c2)cc1`, the photoluminescence quantum yield (in C1CCOC1) amounted to 0.38.
As for `Cc1cc(C)n2c1C=[N+]1[N+](=C3C=NC=CN3[B-]1(F)F)[B-]2(F)F`, the photoluminescence quantum yield (in ClCCl) is 0.57.
With `O=C1/C(=C2\Sc3ccc(S(=O)(=O)Cl)cc3C2=O)Sc2ccc(S(=O)(=O)Cl)cc21`, the photoluminescence quantum yield reads like this: (in C1COCCO1) 0.949; (in CS(C)=O) 0.012.
For the setting “in ClC(Cl)Cl”, `FC(F)(F)c1ccc2oc3nc4oc5ccc(-n6c7ccccc7c7ccccc76)cc5c4cc3c2c1` yielded a photoluminescence quantum yield of 0.074.
Consider `CC1=[N+]2C(=C(c3cccs3)c3ccc(C)n3[B-]2(F)F)C=C1c1cc2n(c1)[B-](F)(F)[N+]1=CC=CC1=C2c1c(C)cc(C)cc1C`, for which the photoluminescence quantum yield came out at 0.62 (in C1CCCCC1) and 0.12 (in CCOC(C)=O).
For `CCCC1=CC2=C(c3c(C)cc(C)cc3C)c3cc(CCC)c(-c4ccc5ccc6cccc7ccc4c5c67)n3[B-](F)(F)[N+]2=C1c1ccc2ccc3cccc4ccc1c2c34`, the photoluminescence quantum yield (in ClC(Cl)Cl) is 0.64.
Regarding `Cc1ccc(-c2nc(-c3ccc(O)cc3)[nH]c2-c2ccc(C)cc2)cc1`, the photoluminescence quantum yield (in CO) was 0.2.
For the compound `COc1cc2c(cc1C=C(C#N)C#N)c1ccccc1n2C`, the photoluminescence quantum yield (in C1CCOC1) was 0.002; the photoluminescence quantum yield (in CC#N) was 0.003; the photoluminescence quantum yield (in CCOC(C)=O) was found to be 0.004; the photoluminescence quantum yield (in CN(C)C=O) stood at 0.005; the photoluminescence quantum yield (in CO) came to 0.003; the photoluminescence quantum yield (in CS(C)=O) is 0.006. The same compound gave a photoluminescence quantum yield (in Cc1ccccc1) of 0.003, a photoluminescence quantum yield (in ClC(Cl)Cl) of 0.004 and a photoluminescence quantum yield (in ClCCl) of 0.004.
`C=Cc1cc2ccc(OC)cc2oc1=O` yielded a photoluminescence quantum yield (in CC#N) of 0.99.
As to `CCCCN(CCCC)c1ccc(/C=C/c2ccc3nc(-c4ccccc4)c(/C=C/c4ccc(N(C)C)cc4)nc3c2)cc1`, for the setting “in C1COCCO1”, the photoluminescence quantum yield came to 0.17.
`CCCC1=C(CCC)c2cccc3c2c(cc2nc4ccccc4nc23)O1` displayed a photoluminescence quantum yield (in ClCCl) of 0.52.
In turn, `N#CC1=C(c2ccc(-c3cccs3)s2)CC1` gave a photoluminescence quantum yield (in CCO) of 0.18.
With `C(#Cc1cccs1)c1ncc(-c2ccccc2)o1`, for the setting “in ClCCl”, the photoluminescence quantum yield stood at 0.

Source of the values: the Deep4Chem optical property database.
